Two compounds from US20040241310A1, “Method of producing antibodies ex-vivo” (priority 2001, published 2004) can be followed below.

The subject of this assay is White Leghorn chickens. The assay is classed as in vivo. The following applies: oral gavage, 100 μg human IgG together with the adjuvant, two hens per group.

As to `CCCCCCCCCCCCCCCCCC[N+](C)(C)CCCCCCCCCCCCCCCCCC.[Br-]` [DDA, Dimethyl dioctadecyl ammonium bromide], the “titers (antibodies in egg yolk)” value is given as “no or very low titers”.
With CTB, the “titers (antibodies in egg yolk)” value was “One of four chickens in the CTB-group showed high titers”.
